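96-well plates; 48 h exposure; 5 concentrations. Endpoints by linear interpolation between flanking doses. Not reached: highest tested concentration assigned. Here, GI50 denotes the concentration required for 50% inhibition of growth.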 Activity calls are given as the source filed them. Rule as the data show it: active = GI50 up to about 1.1 µM and inactive = higher.
What was measured:
Assay in all cases: NCI anticancer screen, dose series, 48 h
A549 = test system: A549
CAKI-1 = test system: CAKI-1
EKVX = test system: EKVX
HCT-116 = test system: HCT-116
LOX IMVI = test system: LOX IMVI
NCI-H460 = test system: NCI-H460
OVCAR-5 = test system: OVCAR-5
OVCAR-8 = test system: OVCAR-8
RPMI-8226 = test system: RPMI-8226
SF-539 = test system: SF-539
SK-MEL-28 = test system: SK-MEL-28
SK-MEL-2 = test system: SK-MEL-2
SNB-78 = test system: SNB-78
SR = test system: SR
U-251 = test system: U-251
UACC-62 = test system: UACC-62
SF-268 = test system: SF-268
Hs-578T = test system: Hs-578T
MDA-MB-435 = test system: MDA-MB-435
BT-549 = test system: BT-549

Measured: GI50

C=CCn1c(=O)c(C(=O)NC(=O)OCC)cn(C2CCCCC2)c1=O
inactive: A549 > 100 µM | CAKI-1 > 100 µM | EKVX > 100 µM | HCT-116 > 100 µM | LOX IMVI > 100 µM | NCI-H460 > 100 µM | OVCAR-5 > 100 µM | OVCAR-8 > 100 µM | RPMI-8226 > 100 µM | SF-539 > 100 µM | SK-MEL-28 > 100 µM | SK-MEL-2 > 100 µM | SNB-78 > 100 µM | SR > 100 µM | U-251 > 100 µM | UACC-62 > 100 µM

Cn1c(N)nc(=O)c2c1N(C1OC(CO)C(O)C1O)CN2Cc1ccccc1 (stereo not given)
inactive: A549 > 100 µM | CAKI-1 > 100 µM | EKVX > 100 µM | HCT-116 > 100 µM | NCI-H460 > 100 µM | OVCAR-5 > 100 µM | OVCAR-8 > 100 µM | RPMI-8226 > 100 µM | SF-268 > 100 µM | SF-539 > 100 µM | SK-MEL-2 > 100 µM | SNB-78 > 100 µM | SR > 100 µM | U-251 > 100 µM | UACC-62 > 100 µM

COc1ccc(/C(Cl)=C(\C=O)c2ccc([N+](=O)[O-])cc2)cc1OC
inactive: A549 24.7 µM | CAKI-1 9.08 µM | EKVX > 33.3 µM | HCT-116 6.15 µM | Hs-578T 5.69 µM | LOX IMVI 2.87 µM | MDA-MB-435 3.24 µM | NCI-H460 9.27 µM | OVCAR-5 5.13 µM | OVCAR-8 7.64 µM | RPMI-8226 2.87 µM | SF-268 6.73 µM | SF-539 12.5 µM | SK-MEL-28 13.1 µM | SK-MEL-2 21 µM | SNB-78 4.3 µM | SR 3.03 µM | U-251 6.32 µM | UACC-62 3.92 µM

COc1cccc2c1N[S@](=O)S2
inactive: A549 > 100 µM | CAKI-1 > 100 µM | EKVX > 100 µM | HCT-116 > 100 µM | LOX IMVI 50.8 µM | RPMI-8226 63.4 µM | SF-268 76 µM | SF-539 > 100 µM | SK-MEL-28 > 100 µM | SK-MEL-2 > 100 µM | SNB-78 > 100 µM | SR 70.6 µM | U-251 39.3 µM | UACC-62 38.6 µM

CCC/N=C/c1c(O)c(O)c(C(C)C)c2cc(C)c(-c3c(C)cc4c(C(C)C)c(O)c(O)c(/C=N/CCC)c4c3O)c(O)c12
inactive: A549 8.05 µM | CAKI-1 25.8 µM | EKVX 7.19 µM | HCT-116 3.44 µM | Hs-578T 69.3 µM | LOX IMVI 6.04 µM | MDA-MB-435 10.7 µM | NCI-H460 4.38 µM | OVCAR-5 10 µM | OVCAR-8 6.46 µM | RPMI-8226 9.16 µM | SF-268 6.92 µM | SF-539 5.65 µM | SK-MEL-28 12.6 µM | SK-MEL-2 2.76 µM | SNB-78 2.58 µM | SR 3.46 µM | U-251 2.07 µM | UACC-62 5.78 µM

O=C(NCCCCCCNC(=O)n1cc(F)c(=O)[nH]c1=O)NCCCOCCOCCOCCOCCOCCOCCOCCOCCOCCOCCOCCOCCOCCOCCOCCOCCOCCOCCOCCOCCOCCCNC(=O)C(O)C(O)C(O)C(O)CO (stereo not given)
inactive: A549 6.52 µM | BT-549 37.7 µM | CAKI-1 22.5 µM | EKVX 85.9 µM | HCT-116 9.57 µM | Hs-578T 61.8 µM | LOX IMVI 16.3 µM | MDA-MB-435 55.1 µM | NCI-H460 5.37 µM | OVCAR-5 > 96.4 µM | OVCAR-8 39.2 µM | RPMI-8226 5.85 µM | SF-268 55.5 µM | SF-539 1.81 µM | SK-MEL-28 16.3 µM | SK-MEL-2 > 100 µM | SNB-78 > 100 µM | SR 65.9 µM | U-251 70.6 µM | UACC-62 28.8 µM

O=C1OC(c2ccccc2)=N/C1=C\c1cccc2ccccc12
inactive: A549 > 100 µM | CAKI-1 > 100 µM | HCT-116 > 100 µM | LOX IMVI > 100 µM | NCI-H460 > 100 µM | OVCAR-5 > 100 µM | OVCAR-8 > 100 µM | RPMI-8226 > 100 µM | SF-268 > 100 µM | SF-539 > 100 µM | SK-MEL-28 > 100 µM | SK-MEL-2 > 100 µM | SNB-78 > 100 µM | SR > 100 µM | U-251 > 100 µM | UACC-62 > 100 µM

Cc1cc(Cl)ccc1N1C(=O)C(=O)C(c2nc3ccccc3s2)/C(=N\NC(=O)c2ccccc2O)C1=O (stereo not given)
inactive: A549 > 100 µM | CAKI-1 > 100 µM | EKVX > 100 µM | HCT-116 > 100 µM | LOX IMVI > 100 µM | NCI-H460 > 100 µM | OVCAR-5 > 100 µM | OVCAR-8 > 100 µM | RPMI-8226 > 100 µM | SF-268 > 100 µM | SF-539 > 100 µM | SK-MEL-28 > 100 µM | SK-MEL-2 > 100 µM | SNB-78 > 100 µM | SR > 100 µM | U-251 > 100 µM | UACC-62 > 100 µM

COC(=O)[C@@]12C(=O)CCC(=O)C1C1C(=CC2C)O[C@@H]2OC3(CCCCC3)O[C@H]12 (stereo not given in full)
inactive: A549 > 100 µM | CAKI-1 > 90.4 µM | EKVX 99.8 µM | HCT-116 43.8 µM | LOX IMVI > 72.1 µM | NCI-H460 > 100 µM | OVCAR-5 > 100 µM | OVCAR-8 42.2 µM | RPMI-8226 19 µM | SF-268 > 91.2 µM | SF-539 > 100 µM | SK-MEL-28 97.3 µM | SK-MEL-2 > 100 µM | SNB-78 > 100 µM | SR 25.9 µM | U-251 > 100 µM | UACC-62 > 88.7 µM

CC(C)N(C(=O)C12C3C4C5(C#N)C3C1(I)C5C42I)C(C)C (stereo not given)
inactive: A549 > 100 µM | CAKI-1 > 100 µM | EKVX > 100 µM | HCT-116 17.8 µM | LOX IMVI > 40.3 µM | NCI-H460 > 78 µM | OVCAR-5 > 100 µM | OVCAR-8 > 100 µM | RPMI-8226 > 49.8 µM | SF-268 > 100 µM | SF-539 > 60.8 µM | SK-MEL-28 > 100 µM | SK-MEL-2 > 100 µM | SNB-78 67.9 µM | SR 37.8 µM | U-251 > 84.1 µM | UACC-62 > 100 µM

O=C(O)CCC(N/C=C1/N=C(c2ccccc2)OC1=O)C(=O)O (stereo not given)
inactive: A549 > 100 µM | CAKI-1 > 100 µM | EKVX > 100 µM | HCT-116 > 100 µM | NCI-H460 > 100 µM | OVCAR-5 > 100 µM | OVCAR-8 > 100 µM | RPMI-8226 > 100 µM | SF-268 > 100 µM | SF-539 > 100 µM | SK-MEL-28 > 100 µM | SK-MEL-2 > 100 µM | SNB-78 > 100 µM | SR > 100 µM | U-251 > 100 µM | UACC-62 > 100 µM

CCOC(=O)C12C(C(=O)OC)=C(C)N(NC(=O)Nc3ccccc3)C1(N)N(NC(=O)Nc1ccccc1)C(C)=C2C(=O)OC (stereo not given)
inactive: A549 44.6 µM | CAKI-1 34.9 µM | EKVX 43.5 µM | HCT-116 25.3 µM | LOX IMVI 17 µM | NCI-H460 40.3 µM | OVCAR-5 38.5 µM | OVCAR-8 27.7 µM | RPMI-8226 25.9 µM | SF-268 31.3 µM | SF-539 18.9 µM | SK-MEL-28 34.1 µM | SK-MEL-2 19.9 µM | SNB-78 47.4 µM | SR 22 µM | U-251 17.7 µM | UACC-62 18 µM

CC(=O)c1sc(-c2nc(C)c(C(=O)/C=C\c3ccc(/C=C\C(=O)c4sc(-c5nc(C)c(C(C)=O)s5)nc4C)cc3)s2)nc1C
inactive: A549 > 100 µM | CAKI-1 > 100 µM | EKVX > 100 µM | HCT-116 > 100 µM | LOX IMVI > 100 µM | NCI-H460 > 100 µM | OVCAR-5 > 100 µM | OVCAR-8 > 100 µM | RPMI-8226 50.5 µM | SF-268 > 100 µM | SF-539 > 100 µM | SK-MEL-28 > 100 µM | SK-MEL-2 > 100 µM | SNB-78 > 100 µM | SR > 100 µM | U-251 > 100 µM | UACC-62 85.9 µM

Source: ChEMBL document CHEMBL1201862, “PubChem BioAssay data set” (2004)
